# Reference: US8158621B2, “Methods of treating or preventing autoimmune diseases with 2,4-pyrimidinediamine compounds” (Rigel Pharmaceuticals, Inc., priority 2002, dated 2012)
# System: Human Jurkat T-cells (clone N)
# Experiment: Jurkat T-cell activation (anti-TCR, CD69 upregulation)
# Assay type: cell-based
# Settings: not given
# In short: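 Readout is CD69 upregulation by flow cytometry (anti-CD69-APC, 20 min at 4 °C) after 20 h anti-TCR (C305, 500 ng/ml) stimulation at 37 °C.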
row,IC50 [µM],Compound
1,3.21,O=C(CNc1cccc(Nc2ncc(F)c(Nc3ccc4c(c3)OCCO4)n2)c1)N(CCO)CCO [Compound R950199]
2,0.92,OCCn1ncc2cc(Nc3ncc(F)c(Nc4cccc(O)c4)n3)ccc21 [Compound R935256]
3,24.1,COC(=O)c1cc2cc(Nc3nc(Nc4ccc(OCc5nc(-c6ccccc6)no5)cc4)ncc3F)ccc2o1 [Compound R935137]
4,> 10,CSc1nc(Nc2ccc3c(c2)OCCO3)nc(Nc2ccc3c(c2)OCCO3)c1Cl [Compound R926475]
5,> 10,CCOC(=O)c1cnc(N[C@@H](Cc2ccccc2)C(=O)OCC)nc1N[C@@H](Cc1ccccc1)C(=O)OCC [Compound R926526]
6,7.06,COC(=O)Cn1ncc2cc(Nc3ncc(F)c(Nc4ccc5c(cnn5CC(=O)OC)c4)n3)ccc21 [Compound R935211]
7,1.56,CN(C)C(=O)COc1cccc(Nc2ncc(F)c(Nc3ccc4c(c3)NCCO4)n2)c1 [Compound R909290]
8,> 10,O=C(O)COc1cccc(Nc2ncc(F)c(Nc3ccc(O)c(C(=O)O)c3)n2)c1 [Compound R950291]
9,0.393,CNC(=O)COc1cccc(Nc2ncc(F)c(Nc3ccc(C)c(O)c3)n2)c1 [Compound R926753]
10,> 10,COC(=O)COc1ccc(Nc2ncc(F)c(Nc3cccc(C#N)c3)n2)cc1 [Compound R945110]
11,4.59,CNC(=O)COc1cccc(Nc2nc(Nc3cccc(O)c3)ncc2C(F)(F)F)c1 [Compound R926741]
12,6.73,OCCn1ncc2ccc(Nc3ncc(F)c(Nc4ccc5cnn(CCO)c5c4)n3)cc21 [Compound R935238]
13,1.8,O=C(CNc1cccc(Nc2ncc(F)c(Nc3ccc4c(c3)OCCO4)n2)c1)NCCO [Compound R950195]
14,> 10,CNC(=O)COc1cccc(Nc2ncc(F)c(Nc3ccc4ncccc4c3)n2)c1 [Compound R926883]
15,2.08,CNCCNC(=O)CNc1cccc(Nc2ncc(F)c(Nc3ccc4c(c3)OCCO4)n2)c1 [Compound R950196]
16,3.46,OCCn1ncc2cc(Nc3nc(Nc4cccc(O)c4)ncc3F)ccc21 [Compound R935259]
17,1.95,CNC(=O)COc1cccc(Nc2ncc(F)c(Nc3ccc(OCCC(=O)OC)cc3)n2)c1 [Compound R950346]
18,0.122,CNCCOc1cccc(Nc2ncc(F)c(Nc3ccc4c(c3)OCCO4)n2)c1 [Compound R926510]
19,> 10,CCOC(=O)COc1ccc(Nc2nc(Nc3ccc(OCC(=O)OCC)cc3)c(NC(=O)NC3CCCC3)c(C(=O)OCC)n2)cc1 [Compound R926588]

row,IC50 [µM],Compound
1,7.03,NC(=O)COc1ccc(Nc2ncc(F)c(Nc3ccc(OCC(N)=O)cc3)n2)cc1 [Compound R945025]
2,0.858,CNC(=O)COc1cccc(Nc2ncc(F)c(Nc3ccc4c(c3)-n3ccnc3CO4)n2)c1 [Compound R935271]
3,14.3,CCOc1ccc(Nc2nc(Nc3ccc4c(c3)OCCO4)ncc2F)cc1 [Compound R920670]
4,7.74,CC1(C)Oc2cc(Nc3nc(Cl)ncc3F)cnc2NC1=O [Compound R940344]
5,18.6,CC1(C)COC(COc2ccc(Nc3ncc(F)c(Nc4cccc(O)c4)n3)cc2)=N1 [Compound R926702]
6,3.91,CC(C)(CO)c1ccc(Nc2nc(Nc3ccc4c(c3)OCCO4)ncc2F)cc1 [Compound R935173]
7,9.79,CCOC(=O)COc1cccc(Nc2ncc(F)c(Nc3ccc4c(c3)C(OC)CCO4)n2)c1 (stereo not drawn) [Compound R950294]
8,> 10,Fc1cnc(Nc2ccc(OCc3nn[nH]n3)cc2)nc1Nc1ccc(OCc2nn[nH]n2)cc1 [Compound R945033]
9,3.76,Cc1cc(Nc2nc(Nc3cccc(OCC(=O)N4CCOCC4)c3)ncc2F)cc(C)c1O [Compound R940254]
10,> 10,CCOC(=O)c1cnc(Nc2ccc(OCC(=O)OC)cc2)nc1Nc1ccc(OCC(=O)OC)cc1 [Compound R926253]
11,2.38,Oc1cccc(Nc2nc(Nc3ccc(OCC4=NCCCN4)cc3)ncc2F)c1 [Compound R945169]
12,6.2,CC(C)(C)c1cccc(Nc2nc(Nc3ccc4oc(CO)cc4c3)ncc2F)c1 [Compound R940287]
13,2.78,OCCOc1cccc(Nc2ncc(F)c(Nc3ccc(CO)c(CO)c3)n2)c1 [Compound R940292]
14,12.4,CN(C)C(=O)c1cc2cc(Nc3ncc(F)c(Nc4cccc(O)c4)n3)ccc2o1 [Compound R926718]
15,17.4,CCOC(=O)COc1cccc(Nc2ncc(F)c(Nc3cc(C)c(O)c(C)c3)n2)c1 [Compound R940253]
16,> 10,CC(=O)Nc1cccc(N(C(C)=O)c2nc(N(C(C)=O)c3cccc(N(C(C)=O)C(C)=O)c3)ncc2F)c1 [Compound R950246]
17,13.7,CNC(=O)COc1cccc(Nc2ncc(F)c(Nc3ccc4c(c3)OCC(=O)N4)n2)c1 [Compound R908700]
18,2.58,O=C(NC(CO)CO)c1cc2cc(Nc3ncc(F)c(Nc4ccc5c(c4)OCCO5)n3)ccc2o1 [Compound R926785]
19,8.93,CN1CCN(C(=O)CNc2cccc(Nc3ncc(F)c(Nc4cccc(NCCO)c4)n3)c2)CC1 [Compound R950240]

row,IC50 [µM],Compound
1,5.57,COC(=O)Cn1ncc2ccc(Nc3nc(Nc4ccc5c(c4)OCCO5)ncc3F)cc21 [Compound R935219]
2,5.88,CNC(=O)COc1cccc(Nc2ncc(F)c(Nc3ccc4c(c3)OCCN4C)n2)c1 [Compound R908705]
3,1.14,CNC(=O)COc1cccc(Nc2ncc(F)c(Nc3ccc(OC)nc3)n2)c1 [Compound R926886]
4,3.3,CNC(=O)COc1ccc(Nc2ncc(F)c(Nc3ccc4c(c3)OCCO4)n2)cc1 [Compound R926708]
5,2.43,O=C(c1cc2cc(Nc3ncc(F)c(Nc4cccc(O)c4)n3)ccc2o1)N1CCOCC1 [Compound R926488]
6,2.14,CCOc1ccc(Nc2nc(Nc3cccc(OCC(=O)NC)c3)ncc2F)cc1 [Compound R926827]
7,10.1,COc1ccc(Nc2nc(NC3CCN(Cc4ccccc4)CC3)ncc2F)cc1OC [Compound R940263]
8,0.631,N#CCOc1ccc(Nc2nc(Nc3cccc(O)c3)ncc2F)cc1 [Compound R945071]
9,> 10,CCOC(=O)C(C)(C)c1ccc(Nc2nc(Nc3ccc(OC(C)C)cc3)ncc2F)cc1 [Compound R935167]
10,2.58,O=C(CNc1cccc(Nc2ncc(F)c(Nc3ccc4c(c3)OCCO4)n2)c1)N1CCNCC1 [Compound R950197]
11,> 10,CNC(=O)Cn1ncc2ccc(Nc3ncc(F)c(Nc4ccc5cnn(CC(=O)NC)c5c4)n3)cc21 [Compound R935206]
12,3.65,CC(C)c1cccc(Nc2nc(Nc3cccc(OCCO)c3)ncc2F)c1 [Compound R940289]
13,8,O=C(COc1cccc(Nc2ncc(F)c(Nc3ccc4c(c3)OCCO4)n2)c1)NC1CCCCC1 [Compound R926765]
14,> 10,O=C(O)COc1ccc(Nc2ncc(F)c(Nc3cccc(O)c3)n2)cc1 [Compound R926564]
15,4.15,CC(C)(CO)c1ccc(Nc2ncc(F)c(Nc3ccc4oc(CO)cc4c3)n2)cc1 [Compound R935177]
16,11.1,Cc1nc(COc2cccc(Nc3ncc(F)c(Nc4cccc(O)c4)n3)c2)no1 [Compound R945127]
17,2.38,O=C(COc1cccc(Nc2ncc(F)c(Nc3ccc4c(c3)OCCO4)n2)c1)NC(CO)CO [Compound R926784]
18,10.4,Oc1cccc(Nc2nc(Nc3ccc(OCc4nnn[nH]4)cc3)ncc2C(F)(F)F)c1 [Compound R920846]

# Same assay, conditions: Homo sapiens
row,Compound,IC50 [µM]
1,Fc1cnc(Nc2ccc3cc[nH]c3c2)nc1Nc1ccc2cc[nH]c2c1 [Compound R926594],1.25
2,O=[N+]([O-])c1cc(Nc2ncc(F)c(Nc3ccc(F)c([N+](=O)[O-])c3)n2)ccc1F [Compound R950148],> 10

# Same assay, conditions: Homo sapiens, Jurkat
row,IC50 [µM],Compound
1,> 10,CCOC(=O)c1nc(Nc2ccc3c(c2)OCCO3)nc(Nc2ccc3c(c2)OCCO3)c1[N+](=O)[O-] [Compound R925852]
2,0.694,COc1cc(Nc2ncc(F)c(Nc3cccc(O)c3)n2)cc(OC)c1OC [Compound R926761]
3,> 10,COc1cc(Nc2nc(Cl)ncc2F)c(OC)cc1Cl [Compound R926858]
4,> 10,CCOc1ccc(Nc2cc(Cl)nc(Nc3ccc(OCC)cc3)n2)cc1 [Compound R926072]
5,> 10,COc1ccc(C)c(Nc2ncc(F)c(Nc3ccc4c(c3)OCCO4)n2)c1 [Compound R926896]
6,> 10,CCOC1CCCc2ccc(Nc3nc(Nc4cccc(O)c4)ncc3F)cc21 (stereo not drawn) [Compound R926942]
7,> 10,Oc1cccc(Nc2nc(Cl)c(Cl)c(Nc3cccc(O)c3)n2)c1 [Compound R926591]
8,> 10,O=C(O)c1ccc(Nc2ncc(F)c(Nc3ccc(C(=O)O)cc3)n2)cc1 [Compound R945037]
9,> 10,Oc1cccc(Nc2nc(NCc3ccccn3)ncc2F)c1 [Compound R945166]
10,11.4,CCOc1ccc(Nc2ncc(C)c(Nc3ccc(OCC)cc3)n2)cc1 [Compound R926068]
11,> 10,N#Cc1cccc(Nc2ncc(F)c(Nc3cccc(C#N)c3)n2)c1 [Compound R945051]
12,43.2,COC(=O)c1cc(Nc2ncc(F)c(Nc3ccc(OC)c(C(=O)OC)c3)n2)ccc1OC [Compound R945066]
13,29.1,CCOc1ccc(Nc2ccnc(Nc3ccc(OCC)c(N)c3)n2)cc1N [Compound R950142]
14,3.39,CN1C(=O)COc2ccc(Nc3nc(Nc4cccc(O)c4)ncc3F)cc21 [Compound R908709]
15,9.97,Cc1cc(Nc2ncc(F)c(Nc3ccc4c(c3)OCCO4)n2)c(C)cc1O [Compound R926792]
16,> 10,COC(=O)c1cc2cc(Nc3ncc(F)c(Nc4ccc5oc(C(=O)OC)cc5c4)n3)ccc2o1 [Compound R926604]
17,> 10,Oc1cccc(Nc2ncc(F)c(NCc3csc4ccc(Cl)cc34)n2)c1 [Compound R926722]
18,> 10,Fc1cnc(Nc2ccc(OCc3ccccc3)c(C(F)(F)F)c2)nc1Nc1ccc(OCc2ccccc2)c(C(F)(F)F)c1 [Compound R950090]
19,> 10,Nc1c(F)ccc(Nc2ccnc(Nc3ccc(F)c(N)c3F)n2)c1F [Compound R950131]
20,> 10,Fc1ccc(Nc2ncc(F)c(Nc3ccc(F)c(Cl)c3)n2)cc1Cl [Compound R926223]
